Test results: PMC6326523, “A high-throughput screen to identify novel small molecule inhibitors of the Werner Syndrome Helicase-Nuclease (WRN)” (PLoS ONE, 2019)
Like-named read-outs stand apart in the source and are kept apart here.

Tests used:
Type in all cases: biochemical
full-length WRN helicase [1] = target: T1, full-length WRN helicase (Homo sapiens, UniProt Q14191); assay: Radiometric helicase inhibitor assay, full-length WRN unwinding of FORKR DNA substrate; details: for remaining activity at 50 µM: read-out: % Control WRN Helicase Activity; for IC50: radiometric assay, compound 0-100 μM, read-out: IC50;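 on all read-outs here: WRN preincubated with compound 15 min at room temperature, then unwinding run 15 min at 37 °C with 2 mM ATP, relative to WRN unwinding without compound (100%)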
T1 construct: Full length recombinant WRN [18], BLM [19], and FANCJ [20] proteins were purified from insect cells; made in house; host or cells: insect cells
T1 sequence (Q14191 whole entry): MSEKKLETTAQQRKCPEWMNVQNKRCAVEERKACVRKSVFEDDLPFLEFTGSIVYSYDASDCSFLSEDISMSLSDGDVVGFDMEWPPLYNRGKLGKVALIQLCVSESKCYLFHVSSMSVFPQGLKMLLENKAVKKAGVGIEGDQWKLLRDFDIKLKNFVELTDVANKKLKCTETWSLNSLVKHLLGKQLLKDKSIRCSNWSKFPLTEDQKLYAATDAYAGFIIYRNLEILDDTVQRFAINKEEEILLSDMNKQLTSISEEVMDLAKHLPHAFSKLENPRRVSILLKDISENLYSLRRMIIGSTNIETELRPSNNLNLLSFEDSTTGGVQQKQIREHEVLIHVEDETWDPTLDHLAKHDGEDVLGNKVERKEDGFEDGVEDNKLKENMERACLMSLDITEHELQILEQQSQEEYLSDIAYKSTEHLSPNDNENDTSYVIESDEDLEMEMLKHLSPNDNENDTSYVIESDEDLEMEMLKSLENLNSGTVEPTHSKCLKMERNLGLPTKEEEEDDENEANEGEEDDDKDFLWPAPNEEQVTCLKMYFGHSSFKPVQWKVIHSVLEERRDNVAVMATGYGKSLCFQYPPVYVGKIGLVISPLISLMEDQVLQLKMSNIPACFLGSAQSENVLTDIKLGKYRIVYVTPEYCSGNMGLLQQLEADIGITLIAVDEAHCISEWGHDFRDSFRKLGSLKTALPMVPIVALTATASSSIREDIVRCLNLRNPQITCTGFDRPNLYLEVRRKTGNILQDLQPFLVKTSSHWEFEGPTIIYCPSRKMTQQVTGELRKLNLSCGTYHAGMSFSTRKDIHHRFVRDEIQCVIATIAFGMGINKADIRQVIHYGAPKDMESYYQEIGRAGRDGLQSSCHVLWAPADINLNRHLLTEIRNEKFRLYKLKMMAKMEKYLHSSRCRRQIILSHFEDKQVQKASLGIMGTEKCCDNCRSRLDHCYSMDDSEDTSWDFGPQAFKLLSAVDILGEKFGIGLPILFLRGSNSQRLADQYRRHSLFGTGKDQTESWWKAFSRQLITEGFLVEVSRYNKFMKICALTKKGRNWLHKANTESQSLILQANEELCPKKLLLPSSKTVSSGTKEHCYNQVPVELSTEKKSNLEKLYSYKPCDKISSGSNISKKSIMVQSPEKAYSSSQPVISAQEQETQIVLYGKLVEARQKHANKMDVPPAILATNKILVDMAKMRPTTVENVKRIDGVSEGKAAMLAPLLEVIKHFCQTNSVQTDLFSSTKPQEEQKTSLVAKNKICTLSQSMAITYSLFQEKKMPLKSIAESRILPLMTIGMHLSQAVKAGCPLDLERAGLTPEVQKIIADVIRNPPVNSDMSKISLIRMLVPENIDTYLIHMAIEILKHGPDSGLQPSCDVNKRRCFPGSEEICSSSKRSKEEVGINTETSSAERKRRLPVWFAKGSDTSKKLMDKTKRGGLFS
Protocol: Fifteen μL of reaction buffer was added to a microcentrifuge tube followed by the addition of 1 μL of selected compounds (0.5–100 μM final concentration) or DMSO. One μL of WRN (full length), RECQ1, FANCJ, BLM or control was added to each reaction and incubated at room temperature for 15 min. Three μL of substrate (0.5 nM FORKR and 2 mM ATP final concentrations) were added to all reactions which were incubated at 37°C for 15 min. Reactions were stopped with the addition of 20 μL of 2X STOP dye containing EDTA, glycerol, bromphenol blue and xylene cyanol. Samples were electrophoresed for 1.5 hr at 200 V on a 12% non-denaturing PAGE gel in 1X TBE Buffer.
The compounds were tested at a single concentration of 50 μM in the radiometric helicase assay with full-length recombinant WRN protein (1 nM) and the FORKR DNA substrate (0.5 nM) as described in the Materials and Methods section.
For each compound, we performed titrations over a wide range of concentrations with a fixed concentration of full-length WRN protein (1 nM), and quantitated unwinding as a percentage of full-length WRN unwinding of the FORKR DNA substrate (0.5 nM) in the absence of compound (Fig 6A and 6B, S3 Fig). […] In addition to determining an IC50 value for each compound, we also conducted helicase assays to determine the reversibility of inhibition by each compound tested. […] The reaction was diluted 100-fold with the addition of DNA substrate (0.5 nM final concentration) and ATP (2 mM final concentration) and unwinding was measured (Fig 7A–7D, S4 Fig). Inhibition was either classified as reversible, partially reversible, minimally reversible, or irreversible based on the ability of helicase activity to recover after dilution of the compound 100-fold.

[2] = target: T2, GST-WRN500-946 helicase domain fragment (Homo sapiens, UniProt Q14191); assay: High-throughput fluorometric helicase screen, PubChem AID 651768; details: initial qHTS; 20 nM GST-WRN500-946; 100 nM FORKF; NA = Not Active; read-out: IC50 (μM) Assay ID 651768
T2 construct: made in house; host or cells: insect cells
T2 sequence (Q14191 500-946): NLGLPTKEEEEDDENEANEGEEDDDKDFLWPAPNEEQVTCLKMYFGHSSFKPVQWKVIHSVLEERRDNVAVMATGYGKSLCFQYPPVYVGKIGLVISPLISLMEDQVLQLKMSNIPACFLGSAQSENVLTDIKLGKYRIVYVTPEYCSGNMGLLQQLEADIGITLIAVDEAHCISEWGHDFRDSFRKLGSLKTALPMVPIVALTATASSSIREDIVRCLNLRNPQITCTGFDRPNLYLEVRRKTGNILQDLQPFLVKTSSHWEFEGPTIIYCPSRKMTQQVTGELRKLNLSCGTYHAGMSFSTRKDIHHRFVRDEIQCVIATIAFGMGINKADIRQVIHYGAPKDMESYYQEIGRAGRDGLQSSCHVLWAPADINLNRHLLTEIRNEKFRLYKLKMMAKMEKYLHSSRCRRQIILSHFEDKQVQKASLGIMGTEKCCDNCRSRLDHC
Protocol: (§1) The structures of the members of this collection are available in the PubChem portal https://pubchem.ncbi.nlm.nih.gov/. For both the 350,000 small molecule collection and the LOPAC^1280 screens, 3 μL of GST-WRN500-946 or reaction buffer only were dispensed using a solenoid-valve nanoliter dispenser into a black 1536-well plate (Greiner). Twenty three nL of each serially diluted compound (0.08–50 μM for the LOPAC screen and 0.003–114 μM for the larger library screen) or control were added to each well using a Kalypsys pintool equipped with a 1536-pin array. Plates were incubated at room temperature for 15 min, followed by initiation of the reactions via the addition of 1 μL of substrate (100 nM FORKF and 2 mM ATP final concentrations). Plates were transferred to a ViewLux high-throughput CCD imager and fluorescence was measured in kinetic mode using an excitation filter of 525 nm and emission filter of 598 nm.
(§2) Zʹ factor, a measure for assay quality control was calculated using the formula Z′ = 1−(3σS^++3σS^−)∕|μS^+−μS^−| as described previously. In this formula, 3σS^+ represents 3 standard deviations from the mean of positive signals while 3σS^− represents 3 standard deviations from the mean of negative signals. μS^+ and μS^− represent the mean of positive signals and negative signals respectively. Percent activity was derived using in-house software (http://tripod.nih.gov/curvefit/). Dose-response curves were classified as described previously.
(§3) A collection of approximately 350,000 compounds is available for screening which has been assembled from multiple sources to provide diverse chemical scaffolds with known purity, identity and solubility. To perform the high-throughput screen of these compounds, we needed to produce approximately 50 milligrams of recombinant WRN helicase fragment. To accomplish this, we cloned the helicase domain fragment into several plasmids for either insect cell or bacterial expression to optimize expression and yield. We selected expression plasmids for insect cell expression with either a GST or MBP tag (image A in S1 Fig) and purified the protein (image B in S1 Fig). The GST-WRN500-946 fragment isolated from insect cells was used in the high throughput screen with the conditions described in Fig 2C (20 nM GST-WRN500-946, 100 nM FORKF DNA substrate) and a summary of the results can be found on PubChem (National Center for Biotechnology Information. PubChem BioAssay Database; Assay Identifier (AID) = 651768, https://pubchem.ncbi.nlm.nih.gov/bioassay/651768). […] To verify the active compounds, approximately 600 hit molecules were retested in a confirmatory screen also found on PubChem (National Center for Biotechnology Information. PubChem AID = 720497, https://pubchem.ncbi.nlm.nih.gov/bioassay/720497). Of these, a little less than four hundred compounds were confirmed as active compounds.

full-length WRN helicase [3] = target: T1, full-length WRN helicase; assay: Radiometric helicase inhibitor reversibility assay (100-fold dilution); design: key to Reversibility: (-) = irreversible; (+) = minimally reversible; (++) = partially reversible; (+++) = reversible; details: for Reversibility: WRN 100 nM preincubated at 10-fold IC50, diluted 100-fold, unwinding 0-16 min; for Reversibility of inhibition (in words): full-length WRN
Protocol: WRN (full length, 100 nM concentration) was incubated with each small molecule inhibitor at a concentration 10-fold higher than the IC50 for that inhibitor, in a 10 μL reaction at room temperature. 1.5 μL of this reaction was added to 148.5 μL of reaction salts with 2 mM ATP, 0.5 nM FORKR reducing the full length WRN concentration to 1 nM and the drug concentration to 10-fold less than its IC50. Reactions were placed at 37°C and 20 μL of reaction were removed at specific intervals (0–16 min) and quenched with 20 μL of 2X STOP dye containing EDTA, glycerol, bromphenol blue and xylene cyanol. Samples were electrophoresed for 1.5 hr at 200 V on a 12% non-denaturing PAGE gel in 1X TBE Buffer.
Eighteen compounds were selected based on potency of inhibition in both the screening and radiometric assays, and exclusion of compounds with undesired chemical features. For each compound, we performed titrations over a wide range of concentrations with a fixed concentration of full-length WRN protein (1 nM), and quantitated unwinding as a percentage of full-length WRN unwinding of the FORKR DNA substrate (0.5 nM) in the absence of compound (Fig 6A and 6B, S3 Fig). […] In addition to determining an IC50 value for each compound, we also conducted helicase assays to determine the reversibility of inhibition by each compound tested. Details of the assay can be found in the Materials and Methods section, but briefly 100 nM WRN was incubated with each compound at a concentration 10-fold higher than its IC50 value. The reaction was diluted 100-fold with the addition of DNA substrate (0.5 nM final concentration) and ATP (2 mM final concentration) and unwinding was measured (Fig 7A–7D, S4 Fig). Inhibition was either classified as reversible, partially reversible, minimally reversible, or irreversible based on the ability of helicase activity to recover after dilution of the compound 100-fold. Table 2 summarizes the IC50 values and reversibility for each compound and includes IC50 values obtained from the screens for comparison.

[4] = target: T3, WRN helicase domain fragment (Homo sapiens, UniProt Q14191); assay: WRN-hel-f2 protocol qHTS confirmatory (15 compound confirmatory assay); details: NA = Not Active
T3 construct: GST (N); made in house
T3 sequence (Q14191 500-946): as above
Protocol: as §1

[5] = target: T2, GST-WRN500-946 helicase domain fragment; assay: Confirmatory fluorometric helicase screen, PubChem AID 720497; details: 20 nM GST-WRN500-946, 100 nM FORKF, NA = Not Active, read-out: IC50 (μM) Assay ID 720497
Protocol: as §1, §2, §3

[6] = 50 μM compound, full-length WRN 1 nM, FORKR 0.5 nM
[7] = full-length WRN 1 nM, FORKR 0.5 nM

Structure (SMILES)	remaining activity at 50 µM (full-length WRN helicase [1]; [6]) [%]	IC50 [2] [µM]	Reversibility (full-length WRN helicase [3])	IC50 (full-length WRN helicase [1]; [7]) [µM]	IC50 [4] [µM]	IC50 [5] [µM]	remaining activity at 50 µM (full-length WRN helicase [1]) [%]	Reversibility of inhibition (in words) (full-length WRN helicase [3])
Cc1nn(-c2ccccc2)c2nc(-c3ccco3)cc(C(=O)O)c12 [MLS000060726-02]	100							
O=c1[nH]c2ccccc2n2c(-c3ccccc3)nnc12 [MLS000540817-03]	99							
Oc1ccc(C2=CSc3nnc(-c4ccco4)n3N2)cc1O [MLS000551562-03]	92							
Cc1cc(OCC(=O)Nc2ccc(N3CCN(C(=O)c4ccco4)CC3)cc2)cc(C)c1Cl [MLS000582679-02]	64							
O=C(O)c1ccccc1-c1ccc(/C=C/c2cc(C(F)(F)F)nc(O)n2)o1 [MLS000715904-02]	76							
O=C(c1cccc(-n2cccc2)c1)N1CCN(S(=O)(=O)c2ccccc2)CC1 [MLS001139594-03]	4	4.7	-	10	0.35	4.3		
Cc1ccc(CN(C)C(=O)CCc2nc(O)c3c4c(sc3n2)CCCC4)o1 [MLS001160745-02]	8	44.6	+	11	22.4	9.6		
Cc1ccc(C)c(NC(=O)CN(C)C(=O)c2cccc(-n3cccc3)c2)c1 [MLS001161412-02]	5							
CCc1nnc(NC(=O)c2cc(-c3ccc(C)o3)nc3ccccc23)s1 [MLS002179845-02]	93							
CN(C)CC(C(=O)Cc1ccccc1)c1ccccc1 (centres unmarked) [MLS002608145-02]							93	
Cc1ccc(C(=O)Nc2nnc([S+](=O)([O-])N(C)Cc3ccco3)s2)cc1 [NCGC00120906-02]		37.6	-	9	5.6		33	irreversible
CCc1ccc(NC(=O)c2ccc3c(O)c([S+](=O)([O-])c4ccc(Cl)cc4)c(=O)[nH]c3c2)cc1 [NCGC00123016-02]		26.6	+++	50	39.8		20	
COc1ccc(-c2cc(C(F)(F)F)nc([S+](=O)([O-])CCC(=O)Nc3ccc(C)cc3)n2)cc1 [NCGC00317517-02]							93	
COc1ccc(N[S+](=O)([O-])c2cc(C(=O)Nc3ccc4nc(C)sc4c3)ccc2C)cc1 [NCGC00348187-01]							83	

More lines, main results first:

remaining activity at 50 µM (full-length WRN helicase [1]; [6]) [%]	IC50 [2] [µM]	Reversibility (full-length WRN helicase [3])	IC50 (full-length WRN helicase [1]; [7]) [µM]	IC50 [4] [µM]	IC50 [5] [µM]	Structure (SMILES)	remaining activity at 50 µM (full-length WRN helicase [1]) [%]	Reversibility of inhibition (in words) (full-length WRN helicase [3])
69						O=C(Nc1nncs1)c1cc(-c2ccco2)nc2ccccc12 [MLS002249549-02]		
3	2.7	+++	2	0.35	6.1	COc1ccccc1Nc1ccc2c(O)cc(S(=O)(=O)O)cc2c1 [MLS002608028-02]		
0						Oc1c(C(c2ccccc2)N2CCOCC2)ccc2ccccc12 (centres unmarked) [MLS002694128-02]		
109						CCCN(CCC)CCCNC(=O)c1cc2c(-c3ccc(OC)c(OC)c3)nn(C)c2s1 [NCGC00108865-03]		
10	16.8	+	2	1.26	13.6	COC(=O)c1cc(NC(=O)c2ccc3c(c2)NC(=O)c2ccccc2S3)cc(C(=O)OC)c1 [NCGC00113056-02]		
65						Cc1cc(OC(C)C(=O)Nc2cccc(-c3nc4ccccc4o3)c2)cc(C)c1Cl (centres unmarked) [NCGC00119189-02]		
13	39.8	-	15	12.5		CN(Cc1ccco1)[S+](=O)([O-])c1nnc(NC(=O)c2cccc(Cl)c2)s1 [NCGC00120928-02]		irreversible
5	50.1	+++	5	28.1		CC(C)(C)c1ccc(-c2nc(SCCCOc3ccccc3)n3[nH]c(=O)cc3n2)cc1 [NCGC00128735-02]		
20	21.1	++	10	1.8	15.2	CCOc1ccc(-c2nc(SCC(=O)Nc3ccc(C)c(C)c3)n3[nH]c(=O)cc3n2)cc1 [NCGC00128865-02]		
7	16.8	-	9	12.5	13.6	Cc1ccc(-c2nc(SCc3ccc(Br)cc3)n3[nH]c(=O)cc3n2)cc1 [NCGC00129037-02]		
30	11.9	-	25		7.6	CC1=C(C(=O)Nc2ccccc2)C(c2ccc[nH]2)n2ncnc2N1 (centres unmarked) [NCGC00132363-04]		
113						COc1ccccc1N1CCN(C(=O)Cc2c(C(=O)O)c(C)cn2C)CC1 [NCGC00137902-02]		
108						Cc1cn(C)c(CC(=O)N2CCN(c3ccccc3F)CC2)c1C(=O)O [NCGC00137904-02]		
99						COc1ccc(N2CCN(C(=O)Cc3c(C(=O)O)c(C)cn3C)CC2)cc1 [NCGC00137930-02]		
0	7.5	-	5	6	6.1	O=c1cc(N2CCNCC2)nc2sc(-c3ccncc3)nn12 [NCGC00183602-01]		
9	35.4	+++	10	25.1		Cc1ccc(N2CCN(c3cnn(-c4nc5ccccc5s4)c(=O)c3Cl)CC2C)cc1 (centres unmarked) [NCGC00295201-02]		
42						COc1ccc2nc(O)c(-c3noc(-c4cccs4)n3)cc2c1 [NCGC00307457-02]		
